We go through one sequence from patent publication US7009036B2, “Peptide inhibiting platelet derived growth factor (PDGF-BB) and fibroblast growth factor (bFGF) activity” (Provincia Italiana Della Congregazione Dei Figli …, priority 2001, dated 2006).

Ends that are not written are not given here.

Data set [1] concerns primary rat aorta smooth muscle cells (RASMC). Nature of the data set: Proliferation assay, RASMC. As to conditions: 0.1% BSA alone, no growth factor; any time. Type of data set: cell-based. As for the experimental part: (§1) This test was carried out on Primary rat aorta smooth muscle cells (RASMC) obtained from six-month old male Wistar rats following a well known technique (Sterpetti, A. V. et al., 1992, J. Vasc. Surg., 6, 16–20); primary bovine aortic endothelial cells (BAEC) were obtained according to previously described protocols (D'Arcangelo, D. et al., 2000, Circ.Res., 86, 312–318).
(§2) Proliferation assay was carried out on primary rat aorta SMC and on primary bovine aortic endothelial cells (BAEC). Cells were plated in six-well plates (1×10^5 cells/plate) and grown for 24 hours in Dulbecco Modified eagle's medium (DMEM) supplemented with 10% FBS, at 37° C. in 5% CO2. Then, the medium was replaced with DMEM medium containing 0.1% BSA for 24 hours. Subsequently, the medium was replaced with fresh medium containing either 0.1% BSA alone or 0.1% BSA with growth factors at 10 ng/ml final concentration or fetal calf serum (FCS) al 10%, in the absence or in the presence of PEP1 or control peptide. Each assay was carried out for mounting period of time up to a maximum time of three days and the cell were harvested and counted with hemacytometer.

Data set [2] has as its system primary bovine aortic endothelial cells (BAEC). Nature of the data set: Proliferation assay, BAEC. In kind it is cell-based. As to conditions: 0.1% BSA alone, no growth factor; any time. As for the experimental part:
as §1, §2

Regarding “DPHIKLQLQAE [PEP1, Asp-Pro-His-Ile-Lys-Leu-Gln-Leu-Gln-Ala-Glu]”, the “effect on spontaneous proliferation (toxicity per se), RASMC” value in data set [1] is given as “not significantly affected”. Moreover, in data set [2], the “effect on spontaneous proliferation (toxicity per se), BAEC” value is listed as “not significantly affected”.
